Test results reported in patent US12648924B2, “Prevention and treatment of effects of aging and age-associated disorders with ketone supplementation” (priority 2020, dated 2026).
Entries after “also recorded” stand apart in the source; their conditions may differ.

Assay: Blood metabolites after 4-day transition to standard diet supplemented with KDE (Experiment 4a)
Assay type: in vivo, VM/Dk mice
Settings: for blood ketone levels: vs baseline
Text: Food Intake and Ketone Diester Administration: Standard diet dry food (2018 Teklad Global 18% Protein Rodent Diet, Harlan) was mixed with deionized water (1 g dry food/mL deionized water) into a consistent paste and placed on a 100×15 mm dish. Food intake was tracked daily at the same time (7:00-9:00) and replaced every other day to ensure fresh food. Due to sinusoidal/oscillatory changes in food intake observed every other day (2-day pattern), a 4-day (2×2-day pattern) average was taken at EOL and baseline to calculate changes in anorexic symptoms. KDE was chemically synthesized with physical properties, preparation, and analysis described previously. For evaluation of KDE effect on anorexia, food intake was tracked daily at the same time (7:00-9:00). […] Consequently, upon VM-M3 inoculation, KDE+VM-M3 received ad libitum 0% KDE/weight day 1, 5% KDE day 2, 10% KDE day 3, 15% KDE day 4, 20% KDE day 5, 25% KDE day 6, and 30% KDE day 7 through 21 on top of HPSD. VM-M3 and Sham received HPSD ad libitum. As pilot work indicated potential water evaporation in food paste in ventilated cages, dehydration standard curve was calculated across various volumes of plated food (5, 10, 25.0, 50.0, 100 g/food) with and without KDE over a two-day period. Standard curve equation [water evaporated=0.2472 (original grams of water)+1.364] was used to correct for amount of dehydration prior to calculating caloric intake. For LPS experiments, 1×4 mL/kg KDE gavage or 1×4 mL/kg water gavage were administered for KDE+LPS and LPS-only, respectively. Ab libitum food intake was tracked daily during initial analysis with caloric restriction reported as the percent reduction in 24-hour caloric intake from pre- to post-LPS administration. Pair-feeding was conducted during subsequent analysis. […]
Metabolic Biomarkers: Blood glucose and R β-hydroxybutyrate were measured using Precision Xtra™ Blood Glucose & Ketone Monitoring System (Abbott Laboratories, Abbott Park, IL). Blood lactate concentration was measured using Lactate Plus Lactate Meter (Nova Biomedical). IGF-1 and Insulin were relabeled for blinded analysis and subsequently analyzed using Luminex 100 system (Luminex, Austin, TX) with R&D Systems Mouse 1-Plex Luminex Assay (R&D Systems, Minneapolis, MN) and Milliplex Mouse Multiplex Kit (Millipore, St. Charles, MO), respectively, using manufacturer's protocol.
To determine whether KDE could alter systemic metabolism, blood metabolites were measured at baseline following a standard diet and after a 4-day transition to a standard diet supplemented with 20% KDE, 25% KDE, or 30% KDE. […] To determine whether KDE could alter metabolism in CACS, blood ketones, glucose, and lactate were measured weekly. […] Thus, to determine if KDE altered tumor burden, in vivo bioluminescence imaging was analyzed weekly.

CC(=O)CC(=O)OCCC(C)OC(=O)CC(C)=O (stereo not shown) [KDE, R/S 1,3-butanediol acetoacetate diester]
blood ketone levels (20% KDE in standard diet, 4-day transition): significant elevations
blood ketone levels (30% KDE in standard diet, 4-day transition): significant elevations; also recorded: highest ketone elevations
blood glucose levels (30% KDE in standard diet, compared with 20% and 25% KDE): greatest reduction in glucose
blood glucose levels (all KDE groups (20%, 25%, 30% KDE in standard diet), 4-day transition): significant reductions
